Assays:
Type in all cases: cell-based, human
[1] = system: caspase-3; test: Cisplatin-induced cleaved caspase-3, Western blot; conditions: for cleaved or active caspase-3 by Western blot: 50 μM for 24 h
Experimental: FIG. 5, comprising FIG. 5A and FIG. 5B, depicts effects of cisplatin in lung fibroblasts (LF) and alveolar epithelial cells (AEC) transfected with MET WT and MET D1398G. FIG. 5A depicts transfected cells were incubated with or without cisplatin for 24 hours. The cells were collected with lysis buffer and analyzed by Western blot with indicated antibodies. FIG. 5B depicts densitometric analysis of uncleaved MET detected by C12 antibody. Values are the mean and SD from three independent experiments.

[2] = system: alveolar epithelial cells (AEC, A549); test: Caspase 3 Assay, FasL- and cisplatin-induced apoptosis; conditions: for apoptosis, level of active caspase 3: AEC incubated 24 h with the inducer; for FasL-induced apoptosis (caspase 3 activity) / cisplatin-induced apoptosis (caspase 3 activity): AEC, 24 hours, peptide treatment, p<0.01
Experimental: FIG. 7 depicts alveolar epithelial cells (AEC) transfected with MET WT but not with MET D1398G are protected from FasL- and cisplatin-induced apoptosis. Transfected AEC were incubated with or without FasL or cisplatin for 24 hours, collected with lysis buffer and analyzed by Caspase 3 Assay as detailed in Materials and Methods.
FIG. 17A depicts 1403 and 1404 peptides inhibit collagen in TGFβ-stimulated LF. Cells were incubated with and without TGFβ (5 ng/ml), 1403, and 1404 peptides (1 μg/ml) or scrambled peptide (Control, Co) for 24 h and analyzed by immunoblotting using anti-collagen type I antibody. FIG. 17B depicts 1403 and 1404 but not M10 protect AEC from FasL- and cisplatin-induced apoptosis. AEC were incubated with or without 1403, 1404, or scrambled (Control) peptides, FasL, and cisplatin for 24 hours and analyzed by Caspase 3 Assay from Abcam.
Caspase 3 Assay Kit (Abcam, Cambridge, Mass.) was used to detect apoptosis in cultured cells. The cells were plated on 100 mm plates, transfected with MET WT or D1398G, and treated with or without FasL and cisplatin for 24 h. Cell lysates were collected in accordance to with the manufacturer's instructions, transferred to a 96-well plate, and incubated with DEVD-p-NA substrate at 37° C. for 2 hours followed by reading the absorbance at 405 nm on a spectrophotometer.
A cell-protective effect of HGF and MET have been reported in AEC in numerous studies (Crestani, et al., Proc Am Thorac Soc, 2012, 9(3):158-63 and Gazdhar, et al., Hum Gene Ther, 2013, 24(1):105-16). To investigate if the D1398G mutation interferes with anti-apoptotic effects of MET in AEC, apoptosis of AEC with FasL and cisplatin and measured caspase 3 activity in cell lysates was induced. […] In contrast, AEC transfected with the MET D1398G mutant were not protected from FasL- and cisplatin-induced apoptosis.
To investigate if the 1403 and 1404 peptides have anti-apoptotic effects in AEC, apoptosis of AEC was induced with FasL and cisplatin and measured caspase 3 activity in cell lysates. […] In contrast, AEC treated with scrambled peptide were not protected from FasL- and cisplatin-induced apoptosis (FIG. 17B).

[3] = system: fetal lung fibroblasts (MRC5 immortal cell line); test: TGFβ-induced collagen type I, immunoblot; conditions: peptide 1 μg/ml, TGFβ 5 ng/ml, 24 h
Experimental: FIG. 11, comprising FIG. 11A and FIG. 11B, depicts the effect of M10 on TGFβ-induced collagen type 1. FIG. 11A depicts MRC5 cells, normal lung fibroblasts, and normal skin fibroblasts were incubated with or without M10, scrambled peptide (Scr), and TGFβ for 48 hours in serum-free medium. Cell extracts were immunoblotted with anticollagen type I and anti-β-actin antibodies. FIG. 11B depicts densitometric analysis of collagen type I immunoblots from 2 independent experiments.
FIG. 17A depicts 1403 and 1404 peptides inhibit collagen in TGFβ-stimulated LF. Cells were incubated with and without TGFβ (5 ng/ml), 1403, and 1404 peptides (1 μg/ml) or scrambled peptide (Control, Co) for 24 h and analyzed by immunoblotting using anti-collagen type I antibody. […] AEC were incubated with or without 1403, 1404, or scrambled (Control) peptides, FasL, and cisplatin for 24 hours and analyzed by Caspase 3 Assay from Abcam.
Cells were collected and analyzed by immunoblotting as previously described (Bogatkevich et al., J Biol Chem. 2001, 276:45184-45192; Bogatkevich et al., Arthritis Rheum. 2007, 56:3468-3477). The phosphorylation of Smad2 was analyzed by Western blot using anti-phospho-Smad2 antibody in accordance with the manufacturer's instructions (Cell Signaling Technology). […] Total amount of Smad2 was evaluated by re-blotting with anti-Smad2 polyclonal antibody. […]

Row | Molecule | cleaved caspase by Western blot ([1]; AEC and LF, 100 μM) | cleaved or active caspase-3 by Western blot ([1]; AEC) | cleaved or active caspase-3 by Western blot ([1]; LF) | apoptosis, level of active caspase 3 [2] | levels of TGFβ-induced collagen [3] | FasL-induced apoptosis (caspase 3 activity) [2] | cisplatin-induced apoptosis (caspase 3 activity) [2]
1 | N.N.[Cl][Pt][Cl] [cisplatin] | yielded cleaved caspase not only in AEC but also in LF | detectable | not in LF | resulted in apoptosis reflected by an increase in the level of active caspase 3 |  |  | 
2 | DDEVDTRPAS (1403 Peptide) [compound 1403, M5 peptide with added caspase-3 cleavage sites and an additional N-terminal aspartic acid] |  |  |  |  | significantly reduced | significantly reduced apoptosis | significantly reduced apoptosis
3 | DEVDTRPAS (1404 Peptide) [compound 1404, M5 peptide with added caspase-3 cleavage sites] |  |  |  |  | significantly reduced | significantly reduced apoptosis | significantly reduced apoptosis
4 | FasL: inducer of apoptosis in AEC (protein, UniProt P48023 130-281, looked up) Tumor necrosis factor ligand …: QIGHPSPPPEKKELRKVAHLTGKSNSRSMPLEWEDTYGIVLLSGVKYKKGGLVINETGLYFVYSKVYFRGQSCNNLPLSHKVYMRNSKYPQDLVMMEGKMMSYCTTGQMWARSSYLGAVFNLTSADHLYVNVSELSLVNFEESQTFFGLYKL |  |  |  | resulted in apoptosis reflected by an increase in the level of active caspase 3 |  |  | 

— US10344071B2, “Identification of novel anti-fibrotic peptide in C-terminal region of the MET receptor tyrosine kinase” (MUSC Foundation for Research Development, priority 2015, dated 2019)
